Values joined by “and” are separate entries in the source; they are usually repeats but may differ in a detail not shown here. Equal entries are not always repeated. Where two headings read alike, the source gives them in different places.
Assays:
[1] = molecular target: T1, human dopamine D4 receptor (hD4R) (Homo sapiens, UniProt P21917); experiment: cell-based functional GPCR assay, cAMP modulation, CHO-D4R; conditions: for % Stimulation of control agonist response: D4 (h), 100 µM test compound, control 300 nM DA; for agonist response (%): D4R, 25 µM test compound; for inhibition at 100 µM: read-out: % Inhibition of control agonist response
T1 sequence (P21917 1-419): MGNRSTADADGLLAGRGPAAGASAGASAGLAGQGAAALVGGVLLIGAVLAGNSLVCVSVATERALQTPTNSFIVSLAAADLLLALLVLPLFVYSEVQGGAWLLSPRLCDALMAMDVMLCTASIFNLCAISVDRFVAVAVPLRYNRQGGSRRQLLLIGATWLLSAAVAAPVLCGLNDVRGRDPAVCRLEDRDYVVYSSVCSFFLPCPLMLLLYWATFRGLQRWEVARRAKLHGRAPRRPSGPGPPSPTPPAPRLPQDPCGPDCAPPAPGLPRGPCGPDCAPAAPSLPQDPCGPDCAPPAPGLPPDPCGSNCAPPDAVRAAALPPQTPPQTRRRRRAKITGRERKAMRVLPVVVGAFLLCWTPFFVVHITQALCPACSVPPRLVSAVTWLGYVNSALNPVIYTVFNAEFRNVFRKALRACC

[2] = molecular target: T2, Human Monoamine Oxidase B (hMAO-B) (Homo sapiens, UniProt P27338); experiment: hMAO-B inhibition, MAO-Glo chemiluminescent assay and enzyme kinetics; format: biochemical; conditions: for Inhibition Type: Lineweaver–Burk and Dixon plots; for IC50: log dose-inhibition curve, triplicate, read-out: IC50 (μM, Mean ± SD)
T2 construct: purchased Sigma-Aldrich
T2 sequence (P27338 1-520): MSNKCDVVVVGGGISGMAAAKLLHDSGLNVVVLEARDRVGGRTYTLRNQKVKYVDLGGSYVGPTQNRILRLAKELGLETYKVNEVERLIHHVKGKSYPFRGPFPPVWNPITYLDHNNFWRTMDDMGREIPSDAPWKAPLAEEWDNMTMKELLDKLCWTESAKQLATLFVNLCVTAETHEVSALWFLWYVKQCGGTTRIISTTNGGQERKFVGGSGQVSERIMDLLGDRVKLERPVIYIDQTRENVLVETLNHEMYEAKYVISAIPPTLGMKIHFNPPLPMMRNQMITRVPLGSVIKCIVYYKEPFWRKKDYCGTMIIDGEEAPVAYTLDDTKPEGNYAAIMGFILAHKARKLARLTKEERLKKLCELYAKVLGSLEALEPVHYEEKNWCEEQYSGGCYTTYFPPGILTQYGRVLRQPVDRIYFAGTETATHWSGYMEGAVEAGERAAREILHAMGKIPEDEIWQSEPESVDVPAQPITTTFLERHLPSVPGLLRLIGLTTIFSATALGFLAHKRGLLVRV

[3] = molecular target: T3, Human Monoamine Oxidase A (hMAO-A) (Homo sapiens, UniProt P21397); experiment: hMAO-A inhibition, MAO-Glo chemiluminescent assay and enzyme kinetics; format: biochemical; conditions: for Inhibition Type: Lineweaver–Burk and Dixon plots
T3 construct: purchased Sigma-Aldrich
T3 sequence (P21397 1-527): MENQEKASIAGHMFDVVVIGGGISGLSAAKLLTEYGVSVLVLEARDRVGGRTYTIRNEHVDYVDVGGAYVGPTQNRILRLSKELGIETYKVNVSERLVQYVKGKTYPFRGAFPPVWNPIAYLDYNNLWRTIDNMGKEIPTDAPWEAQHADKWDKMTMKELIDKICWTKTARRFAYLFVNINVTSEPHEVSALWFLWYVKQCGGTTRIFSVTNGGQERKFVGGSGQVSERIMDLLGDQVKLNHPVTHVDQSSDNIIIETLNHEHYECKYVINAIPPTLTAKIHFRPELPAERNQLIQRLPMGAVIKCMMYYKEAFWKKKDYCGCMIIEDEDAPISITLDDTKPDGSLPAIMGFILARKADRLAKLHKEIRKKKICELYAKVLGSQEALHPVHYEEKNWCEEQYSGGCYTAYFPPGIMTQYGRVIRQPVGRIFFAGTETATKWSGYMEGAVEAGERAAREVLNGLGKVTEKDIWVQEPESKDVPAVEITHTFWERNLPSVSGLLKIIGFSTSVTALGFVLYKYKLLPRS

[4] = molecular target: human dopamine D1 receptor (hD1R) (Homo sapiens, UniProt P21728); experiment: cell-based functional GPCR assay, cAMP modulation, CHO-D1R; conditions: for % Stimulation of control agonist response: D1 (h), 100 µM test compound, control 10 μM DA; for inhibition at 100 µM: read-out: % Inhibition of control agonist response; for inhibition at 25 µM: read-out: % inhibition of DA response
hMAO = experiment: initial hMAO activity screen at 100 µg/mL (MAO-Glo); format: biochemical, human; conditions: isozyme not stated
[5] = molecular target: human dopamine D3 receptor (hD3R) (Homo sapiens, UniProt P35462); experiment: cell-based functional GPCR assay, cAMP modulation, CHO-D3R; conditions: for % Stimulation of control agonist response: D3 (h), 100 µM test compound, control 300 nM DA; for agonist response (%): D3R, 25 µM test compound; for inhibition at 100 µM: read-out: % Inhibition of control agonist response
[6] = molecular target: T4, human dopamine D2L receptor (hD2LR) (Homo sapiens, UniProt P14416); experiment: cell-based functional GPCR assay, Ca2+ mobilization, CHO-D2LR; conditions: for inhibition at 100 µM / % Stimulation of control agonist response: D2L (h), 100 µM test compound; for inhibition at 100 µM: control 700 nM DA, read-out: % Inhibition of control agonist response (converted); for % Stimulation of control agonist response: control 10 μM DA; for inhibition at 25 µM: D2LR, 25 µM test compound, read-out: % inhibition of DA response
T4 construct: host or cells: CHO (CHO-D2LR)

[7] = hMAO-A, Dixon plot, read-out: Ki Value
[8] = hMAO-A, log dose-inhibition curve, triplicate, read-out: IC50 (μM, Mean ± SD)
[9] = hD2LR antagonist effect, read-out: IC50 (inhibition of control agonist response)

T4 sequence (P14416 whole entry): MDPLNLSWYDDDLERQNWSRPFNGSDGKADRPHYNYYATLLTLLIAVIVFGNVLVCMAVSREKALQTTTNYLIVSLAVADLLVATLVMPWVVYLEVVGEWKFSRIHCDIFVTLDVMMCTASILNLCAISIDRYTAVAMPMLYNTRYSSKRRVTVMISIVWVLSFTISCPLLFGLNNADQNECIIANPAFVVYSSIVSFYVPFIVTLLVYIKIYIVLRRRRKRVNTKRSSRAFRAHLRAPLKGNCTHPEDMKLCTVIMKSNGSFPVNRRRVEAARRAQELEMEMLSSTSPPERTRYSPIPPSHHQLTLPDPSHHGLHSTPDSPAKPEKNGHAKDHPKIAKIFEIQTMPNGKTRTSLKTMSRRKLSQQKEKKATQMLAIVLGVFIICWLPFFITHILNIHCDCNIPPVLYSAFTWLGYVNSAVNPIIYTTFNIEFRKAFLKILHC
Sequence of human dopamine D1 receptor (hD1R) (P21728 whole entry): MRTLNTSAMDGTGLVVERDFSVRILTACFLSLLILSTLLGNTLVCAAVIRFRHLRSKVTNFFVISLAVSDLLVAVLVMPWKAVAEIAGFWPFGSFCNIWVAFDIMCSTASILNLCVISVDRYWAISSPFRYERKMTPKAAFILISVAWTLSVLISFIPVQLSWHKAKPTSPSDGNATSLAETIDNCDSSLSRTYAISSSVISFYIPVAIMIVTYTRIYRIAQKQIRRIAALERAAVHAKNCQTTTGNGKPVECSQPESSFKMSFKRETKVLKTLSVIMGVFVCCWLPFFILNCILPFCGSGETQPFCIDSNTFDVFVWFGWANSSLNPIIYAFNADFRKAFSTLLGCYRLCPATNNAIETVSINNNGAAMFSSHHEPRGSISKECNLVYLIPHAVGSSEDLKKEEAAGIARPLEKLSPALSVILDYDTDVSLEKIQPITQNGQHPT
Sequence of human dopamine D3 receptor (hD3R) (P35462 whole entry): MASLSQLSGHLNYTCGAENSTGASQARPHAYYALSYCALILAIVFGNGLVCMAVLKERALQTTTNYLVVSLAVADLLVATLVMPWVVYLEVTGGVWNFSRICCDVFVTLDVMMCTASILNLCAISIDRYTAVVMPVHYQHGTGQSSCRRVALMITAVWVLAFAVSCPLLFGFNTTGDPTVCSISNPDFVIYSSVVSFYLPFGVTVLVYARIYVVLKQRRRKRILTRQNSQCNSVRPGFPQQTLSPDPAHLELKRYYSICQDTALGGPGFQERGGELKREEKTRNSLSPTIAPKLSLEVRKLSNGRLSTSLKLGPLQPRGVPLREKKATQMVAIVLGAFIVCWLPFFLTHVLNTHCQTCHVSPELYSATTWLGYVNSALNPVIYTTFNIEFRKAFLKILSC

SMILES	EC50 [1] [µM]	% Stimulation of control agonist response [1]	agonist response (%) [1] [%]	inhibition at 100 µM [1] [%]	Ki ([2]; Dixon plot, read-out: Ki Value) [µM]	Inhibition Type [2]	IC50 [2] [µM]	Ki [3, 7] [µM]	Inhibition Type ([3]; hMAO-A)	IC50 [3, 8] [µM]	IC50 [4] [µM]	% Stimulation of control agonist response [4]	inhibition at 100 µM [4] [%]	inhibition at 25 µM [4] [%]	% inhibition of hMAO activity (hMAO) [%]	EC50 [5] [µM]	inhibition at 100 µM [5] [%]	inhibition at 100 µM [6] [%]	% Stimulation of control agonist response [6]	inhibition at 25 µM [6] [%]	further results
CC1=C[C@H]2c3c(O)cc(-c4cc5ccc(O)cc5o4)cc3O[C@@]3(c4ccc(O)cc4O)Oc4cc(O)ccc4[C@H](C1)[C@@H]23 [Compound 1, mulberrofuran G]	17.2	86.30% and 86.30 ± 0.99%	63.00	-20.8	17 ± 3.31	Noncompetitive	18.1 ± 1.06	27 ± 3.98	Competitive	54.79 ± 0.03	6.13	17.2 ± 8.4%	87.7	92.3	93.87	15.1	-28.7	101	7.10 ± 1.47%	97.2	% Stimulation of control agonist response [5]: 119.9% and 119.9 ± 2.44%; agonist response (%) [5]: 71.92%; IC50 [6, 9]: 2.41 µM
CC(C)=CCc1c(-c2ccc(O)cc2O)oc2c(C3C=C(C)CC(c4ccc(O)cc4O)C3C(=O)c3ccc(O)cc3O)c(O)cc(O)c2c1=O (stereo not drawn) [Compound 2, kuwanon G]	21	90.45% and 90.45 ± 0.14%	58.66	-29.6	52.1 ± 5.56	Noncompetitive	57.7 ± 2.12		Competitive		16.5	0.85 ± 0.24%	98.8	91.1	99.05	20.2	-27.4	99.2	NSI	33.7	IC50 [3]: 70.2 ± 2.6 µM; Ki [3]: 28.3 ± 2.02 µM; IC50 [6]: 31.2 µM
Cc1cc2c3c(c1)-c1c(O)cc(-c4cc5ccc(O)cc5o4)cc1OC3(c1ccc(O)cc1O)Oc1cc(O)ccc1-2 (stereo not drawn) [Compound 3, albanol B]		46.10% and 46.10 ± 1.76%		26.9		mixed type	90.6 ± 1.72	46.9 ± 4.12	Competitive	114 ± 2.3	7.16	INTER	67.8	66.8	74.85	12.6	-13.4	78.5	4.10 ± 1.06%	81.1	Kiu (binding constant with enzyme-substrate complex) ([2]; secondary plot): 186.2 ± 10.26 µM; Ki ([2]; secondary plot, read-out: Kic (binding constant with free enzyme)): 55.2 ± 7.79 µM; % Stimulation of control agonist response [5]: 102.8% and 102.8 ± 1.36%; agonist response (%) [5]: 94.93%; IC50 [6, 9]: 18.4 µM

— paper PMC6940761, “Novel Diels–Alder Type Adducts from Morus alba Root Bark Targeting Human Monoamine Oxidase and Dopaminergic Receptors for the Management of Neurodegenerative Diseases” (International Journal of Molecular Sciences, 2019)
